# Measurements from ChEMBL document CHEMBL5036330, “Discovery of 8,9-seco-ent-Kaurane Diterpenoids as Potential Leads for the Treatment of Triple-Negative Breast Cancer” (J Med Chem, 2021).
# Calls of active or inactive are those of the source. No cut-off for these calls is given here.
# Legend:
# [1] = tested on: MDA-MB-231; assay: Induction of mitochondrial depolarization in human MDA-MB-231 cells assessed as aggregates at 1 uM in dark by JC10 staining based fluorescence microscopy (reference value: 94.4%); type: functional
# [2] = target: RAC-alpha serine/threonine-protein kinase (Homo sapiens) (UniProt P31749); assay: Binding affinity to Akt1 in human MDA-MB-468 cells assessed as shifted melting curve at 2 uM by CETSA assay; type: cell-based
# RAC-alpha serine/threonine-protein kinase (Homo sapiens), sequence (P31749 whole entry): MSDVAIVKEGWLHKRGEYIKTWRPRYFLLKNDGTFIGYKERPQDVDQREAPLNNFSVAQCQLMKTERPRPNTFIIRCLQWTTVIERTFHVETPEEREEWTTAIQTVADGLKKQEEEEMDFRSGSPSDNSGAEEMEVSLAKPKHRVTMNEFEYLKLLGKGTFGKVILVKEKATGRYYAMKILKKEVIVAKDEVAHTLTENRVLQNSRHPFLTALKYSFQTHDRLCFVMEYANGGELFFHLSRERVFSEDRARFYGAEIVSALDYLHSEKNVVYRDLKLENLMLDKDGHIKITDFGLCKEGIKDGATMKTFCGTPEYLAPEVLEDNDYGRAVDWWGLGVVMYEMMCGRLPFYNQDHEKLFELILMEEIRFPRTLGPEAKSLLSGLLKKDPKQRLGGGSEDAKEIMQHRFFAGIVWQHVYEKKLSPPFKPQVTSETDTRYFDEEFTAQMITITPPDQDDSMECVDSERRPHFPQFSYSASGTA
# [3] = tested on: MDA-MB-231; assay: Induction of cell cycle arrest in human MDA-MB-231 cells assessed as accumulation of cells at G2 phase at 2 uM measured after 24 hrs by flow cytometry (reference value: 20.2%); type: functional
# [4] = tested on: MDA-MB-468; assay: Induction of cell cycle arrest in human MDA-MB-468 cells assessed as accumulation of cells at G1 phase at 5 uM measured after 24 hrs by flow cytometry (reference value: 26.6%); type: functional
# [5] = tested on: MDA-MB-231; assay: Induction of cell cycle arrest in human MDA-MB-231 cells assessed as accumulation of cells at S phase at 2 uM measured after 24 hrs by flow cytometry (reference value: 32.2%); type: functional
# [6] = tested on: MDA-MB-468; assay: Cytotoxicity against human MDA-MB-468 cells assessed as reduction in cell viability incubated for 96 hrs by MTT method; type: functional, cell-based; conditions: MDA-MB-468, 96 h
# [7] = tested on: MDA-MB-468; assay: Induction of cell cycle arrest in human MDA-MB-468 cells assessed as accumulation of cells at S phase at 1 uM measured after 24 hrs by flow cytometry (reference value: 46.9%); type: functional
# [8] = tested on: MDA-MB-231; assay: Antiinvasive activity against human MDA-MB-231 cells measured upto 72 hrs by transwell invasion assay relative to control; type: functional, cell-based; conditions: dose 0.1-0.2 µM, time hrs <=72
# [9] = tested on: MDA-MB-468; assay: Inhibition of Akt phosphorylation in human MDA-MB-468 cells measured after 24 hrs by Western blot analysis; type: cell-based; conditions: dose 1-5 µM
# [10] = tested on: MDA-MB-231; assay: Induction of cell cycle arrest in human MDA-MB-231 cells assessed as accumulation of cells at G1 phase at 5 uM measured after 24 hrs by flow cytometry (reference value: 47.7%); type: functional
# [11] = tested on: MDA-MB-231; assay: Cytotoxicity against human MDA-MB-231 cells assessed as reduction in cell viability incubated for 96 hrs by MTT method; type: functional, cell-based; conditions: MDA-MB-231, 96 h
# [12] = tested on: MDA-MB-231; assay: Cytotoxicity against Akt1-silenced human MBA-MB-231 cells assessed as cell viability measured after 24 hrs; type: functional, cell-based
# [13] = tested on: MDA-MB-231; assay: Antitumor activity against human MDA-MB-231 cells xenografted in NOD/SCID mouse assessed as decrease in Ki67 expression in tumor tissue at 5 to 10 mg/kg, ip treated for 33 days by immunohistochemical analysis; type: functional, organism-based; conditions: dose 5-10 mg/kg, time 33.0 day
# [14] = tested on: MDA-MB-231; assay: Antiinvasive activity against in human MDA-MB-231 cells assessed as reduction in beta-catenin expression measured upto 72 hrs by Western blot analysis; type: functional, cell-based; conditions: dose 0.1-0.2 µM, time hrs <=72
# [15] = Toxicity in NOD/SCID mouse assessed as cytotoxicity in spleen at 10 mg/kg, ip treated for 33 days by H&E staining analysis; type: organism-based; conditions: in vivo, 792 h, time 33 day
# [16] = tested on: MDA-MB-231; assay: Effect on PI3K expression in human MDA-MB-231 cells measured at 1 to 5 uM after 24 hrs by Western blot analysis; type: functional, cell-based; conditions: dose 1-5 µM
# [17] = tested on: MDA-MB-231; assay: Induction of apoptosis in human MDA-MB-231 cells assessed as decrease in Bcl2/Bax ratio at 1 to 5 uM measured after 24 hrs by Western blot analysis; type: functional, cell-based; conditions: dose 1-5 µM
# [18] = tested on: MDA-MB-231; assay: Induction of apoptosis in human MDA-MB-231 cells assessed as increase in cleaved PARP at 1 to 5 uM measured after 24 hrs by Western blot analysis; type: functional, cell-based; conditions: dose 1-5 µM
# [19] = tested on: MDA-MB-468; assay: Induction of mitochondrial depolarization in human MDA-MB-468 cells assessed as monomers at 2 uM in dark by JC10 staining based fluorescence microscopy (reference value: 8.4%); type: functional
# [20] = tested on: MDA-MB-231; assay: Induction of cell cycle arrest in human MDA-MB-231 cells assessed as accumulation of cells at G1 phase at 1 uM measured after 24 hrs by flow cytometry (reference value: 47.7%); type: functional
# [21] = tested on: MDA-MB-468; assay: Induction of mitochondrial depolarization in human MDA-MB-468 cells assessed as monomers at 1 uM in dark by JC10 staining based fluorescence microscopy (reference value: 8.4%); type: functional
# [22] = tested on: MDA-MB-231; assay: Antiproliferative activity against human MDA-MB-231 cells assessed as supression of long term proliferative capacity measured after 2 weeks by Colony formation assay; type: functional, cell-based; conditions: dose 0.05-0.2 µM
# [23] = tested on: MDA-MB-231; assay: Induction of mitochondrial depolarization in human MDA-MB-231 cells assessed as monomers at 5 uM in dark by JC10 staining based fluorescence microscopy (reference value: 5.6%); type: functional
# [24] = tested on: MDA-MB-468; assay: Induction of cell cycle arrest in human MDA-MB-468 cells assessed as accumulation of cells at S phase at 5 uM measured after 24 hrs by flow cytometry (reference value: 46.9%); type: functional
# [25] = tested on: MDA-MB-468; assay: Antiproliferative activity against human MDA-MB-468 cells assessed as supression of long term proliferative capacity measured for 2 weeks by Colony formation assay; type: functional, cell-based; conditions: dose 0.05-0.2 µM
# [26] = tested on: MDA-MB-468; assay: Antitumor activity against human MDA-MB-468 cells xenografted in NOD/SCID mouse assessed as decrease in CD31 expression in tumor tissue at 5 to 10 mg/kg, ip treated for 33 days by immunohistochemical analysis; type: functional, organism-based; conditions: dose 5-10 mg/kg, time 33.0 day
# [27] = tested on: MDA-MB-231; assay: Induction of autophagy in human MDA-MB-231 cells assessed as elimination of p62 at 1 to 5 uM incubated for 24 hrs by Western blot analysis; type: functional, cell-based; conditions: dose 1-5 µM
# [28] = tested on: MDA-MB-468; assay: Induction of autophagy in human MDA-MB-468 cells assessed as elimination of p62 at 1 to 5 uM incubated for 24 hrs by Western blot analysis; type: functional, cell-based; conditions: dose 1-5 µM
# [29] = tested on: MDA-MB-231; assay: Antitumor activity against human MDA-MB-231 cells xenografted in NOD/SCID mouse assessed as increase in LC3B expression in tumor tissue at 5 to 10 mg/kg, ip treated for 33 days by immunohistochemical analysis; type: functional, organism-based; conditions: dose 5-10 mg/kg, time 33.0 day
# [30] = tested on: MDA-MB-468; assay: Induction of apoptosis in human MDA-MB-468 cells assessed as early apoptotic cells at 5 uM measured after 24 hrs by Annexin V/Propidium iodide stain based Flow cytometry (reference value: 7.98%); type: functional
# [31] = target: Serine/threonine-protein kinase mTOR (Homo sapiens) (UniProt P42345); assay: Inhibition of mTOR phosphorylation in human MDA-MB-231 cells measured after 24 hrs by Western blot analysis; type: cell-based; conditions: dose 1-5 µM
# [32] = Selectivity index, ratio of IC50 for HEK293 cells to IC50 for human MBA-MB-231 cells; type: toxicity; conditions: HEK293 cells versus MBA-MB-231 cells, read-out: Selectivity Index
# [33] = tested on: MDA-MB-231; assay: Induction of mitochondrial depolarization in human MDA-MB-231 cells assessed as aggregates at 5 uM in dark by JC10 staining based fluorescence microscopy (reference value: 94.4%); type: functional
# [34] = tested on: MDA-MB-468; assay: Induction of apoptosis in human MDA-MB-468 cells assessed as increase in cleaved PARP at 1 to 5 uM measured after 24 hrs by Western blot analysis; type: functional, cell-based; conditions: dose 1-5 µM
# [35] = tested on: MDA-MB-231; assay: Effect on Akt expression in human MDA-MB-231 cells measured at 1 to 5 uM after 24 hrs by Western blot analysis; type: functional, cell-based; conditions: dose 1-5 µM
smiles,measurement,setting,value
C=C1C(=O)C2=C[C@H]1CCC(=O)[C@]1(C)[C@H](O)CCC(C)(C)[C@H]1C[C@H]2O,Activity,[1],81.1%
same,Activity,[2],Active
same,Activity,[3],31.7%
same,Activity,[4],16.1%
same,Activity,[5],34.5%
same,IC50,[6],71.6 nM
same,Activity,[7],27.9%
same,Activity,[8],Dose-Dependent Effect
same,inhibition,[9],Active
same,Activity,[10],27.5%
same,IC50,[11],78.3 nM
same,Activity,[12],inactive
same,Activity,[13],Active
same,Activity,[14],Active
same,Activity,[15],Non-Toxic
same,Activity,[16],inactive
same,Activity,[17],Active
same,Activity,[18],Active
same,Activity,[19],78.5%
same,Activity,[20],33.7%
same,Activity,[21],38.4%
same,Activity,[22],Active
same,Activity,[23],76.2%
same,Activity,[24],24.3%
same,Activity,[25],Active
same,Activity,[26],Active
same,Activity,[27],Active
same,Activity,[28],Active
same,Activity,[29],Active
same,Activity,[30],21%
same,inhibition,[31],Active
same,selectivity ratio,[32],26.2
same,Activity,[33],23.8%
same,Activity,[34],Active
same,Activity,[35],inactive
